Measured values from patent US20240182460A1, “ALLOSTERIC CHROMENONE INHIBITORS OF PHOSPHOINOSITIDE 3-KINASE (PI3K) FOR THE TREATMENT OF DISEASE” (PETRA PHARMA CORPORATION, priority 2022, published 2024).

Assays:
[1] = molecular target: T1, PI3Kα H1047R (Homo sapiens, UniProt P42336, H1047R); assay: PI3Kα H1047R mutant in vitro cell based assay, MDA-MB-453 cells (AlphaLisa SureFire); conditions: MDA-MB-453 cell line, 0% FBS, 3 hours treatment
T1 construct: The MDA-MB-453 (ATCC-HTB-131) cell line (PI3Kα H1047R); host or cells: MDA-MB-453
Source text: (§1) PI3K-Alpha Kinase (PI3Kα) Activity: Wild-Type PI3Kα, H1047R Mutant PI3Kα, and E545K Mutant PI3Kα In Vitro Cell Based Assays and Determination of IC50 Values for Inhibitors
(§2) The MDA-MB-453 (ATCC-HTB-131) cell line (PI3Kα H1047R) and MCF-7 (ATCC-HTB-22) cell line (PI3Kα E545K), MDA-MB-361 (ATCC-HTB-27) cell line (PI3Kα E545K), and SKBR3 (ATCC-HTB-30) cell line (wild type PI3Kα) were obtained from the American Type Culture Collection (Manassas, VA). MDA-MB-453 cells were maintained in Dulbecco's Modified Eagle Media (DMEM, Gibco 12430) supplemented with 10% Fetal Bovine Serum, heat inactivated (FBS HI, Gibco 10082), 1× non-essential amino acids (NEAA, Gibco 11140), 1 mM sodium pyruvate (Gibco 11360) and 1× Anti-Anti (Gibco 15240). MCF-7 cells were maintained in Minimum Essential Media (MEM) (Gibco 11095) supplemented with 10% Fetal Bovine Serum, heat inactivated (FBS HI, Gibco 10082), 1× non-essential amino acids (NEAA, Gibco 11140), 1 mM sodium pyruvate (Gibco 11360), 1× Anti-Anti (Gibco 15240) and 10 μg/mL human insulin (Sigma I 9278). MDA-MB-361 cells were maintained in Dulbecco's Modified Eagle Media (DMEM, Gibco 12430) supplemented with 20% Fetal Bovine Serum, heat inactivated (FBS HI, Gibco 10082), 1× non-essential amino acids (NEAA, Gibco 11140), 1 mM sodium pyruvate (Gibco 11360) and 1× Anti-Anti (Gibco 15240). SKBR3 cells were maintained in McCoy's 5A (Gibco 16600) supplemented with 10% Fetal Bovine Serum, heat inactivated (FBS HI, Gibco 10082), and 1× Anti-Anti (Gibco 15240). Cultures were maintained in a humidified incubator at 37° C. under 5% CO2/95% air.
(§3) For compound testing in 0% FBS, MDA-MB-453, MCF-7 and SKBR3 cells were seeded at a density of 1.5×10^4, 1.0×10^4, and 1.0×10^4 cells, respectively, per well in white 384-well plates in 20 μl of Minimum Essential Media (MEM) assay media with 1×NEAA, 1 mM sodium pyruvate, and 1 μg/mL human insulin (Sigma 19278) (Assay Medium); while MDA-MB-361 cells were seeded at a density of 1.5×10^4 per well in white 384-well plates in 20 μl Assay Medium without insulin. After plating, cells were allowed to attach overnight. Compounds dissolved in 10 mM stock solutions in DMSO were serially diluted 1:3 in DMSO to generate a 10-point dilution series and plated using an acoustic liquid handler system (Echo 550 Series Liquid Handler, Labcyte). A 5× intermediate compound dilution plate in MEM with 1×NEAA and 1 mM sodium pyruvate (150 μM starting compound concentration in 1.5% DMSO) was then prepared. Five μl of the intermediate serially diluted compounds were added to the cell plate to final concentrations ranging from […] in 0.3% DMSO. 0.3% DMSO alone was used to establish the maximum (MAX) signal and GDC-0032 at a final concentration of 1 μM was used as a reference compound for the minimum (MIN) signal. After 3 hours treatment, the medium was removed, and the cells were lysed in 10 μL of 1× SureFire Lysis buffer with shaking for 10 minutes at room temperature. The Acceptor Mix (Reaction Buffer 1+Reaction Buffer 2+Activation Buffer+SureFire Ultra Acceptor Beads) was prepared by diluting Activation buffer 25-fold in combined Reaction Buffer 1 and Reaction Buffer 2.
(§4) The Acceptor beads were diluted 50-fold in the combined Reaction Buffers. Five μL of Acceptor Mix was added to each well, the plate was sealed and covered with foil and incubated for 1 hour at room temperature. The Donor Mix (dilution buffer+SureFire Ultra Donor Beads) was prepared by diluting Donor Beads 50-fold in dilution buffer. Five μL of the Donor Mix was added to each well and the plate sealed and covered with foil and incubated for 1-2 hours at room temperature in the dark. The plates were read on a Neo2 plate reader instrument from Biotek using standard AlphaLisa settings.
(§5) Compounds were tested in duplicate and the % inhibition at each compound concentration was used to generate two dose response curves. One IC50 was generated using average % inhibition at each compound concentration. […]

[2] = molecular target: T2, PI3Kα E545K (Homo sapiens, UniProt P42336, E545K); assay: PI3Kα E545K mutant in vitro cell based assay, MDA-MB-361 cells; design: MDA-MB-361 (ATCC-HTB-27) cell line (PI3Kα E545K); host or cells: MDA-MB-361; conditions: MDA-MB-361 cell line, 0% FBS, no insulin, 3 hours treatment
Procedure, shortened: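 MDA-MB-361 cells (PI3Kα E545K) seeded in serum-free MEM assay medium without insulin, attached overnight, then treated 3 h with compound (10-point 1:3 series, 0.3% DMSO). AlphaLISA SureFire readout of lysates. IC50 by 4-parameter fit, normalized to DMSO (max) and 1 μM GDC-0032 (min).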

[3] = molecular target: T2, PI3Kα E545K; assay: PI3Kα E545K mutant in vitro cell based assay, MCF-7 cells; conditions: MCF-7 cell line, 0% FBS, 3 hours treatment
Source text: as §1, §2, §3, §4, §5

[4] = Metabolic stability and intrinsic clearance in human liver microsomes (MICS); assay type: in vitro ADME; conditions: human, microsomes, pH 7.4
Procedure, shortened: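 Test compound (1 μM final) incubated at 37° C with liver microsomes (0.5 mg/mL protein) in 100 mM phosphate buffer pH 7.4, with 1 mM NADPH or without cofactor; sampled at 0.5–60 min, quenched with cold acetonitrile. Parent remaining quantified by LC-MS/MS; t1/2 from ln-% remaining slope converted to CLint (μL/min/mg protein).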

T2 sequence (P42336 whole entry E545K): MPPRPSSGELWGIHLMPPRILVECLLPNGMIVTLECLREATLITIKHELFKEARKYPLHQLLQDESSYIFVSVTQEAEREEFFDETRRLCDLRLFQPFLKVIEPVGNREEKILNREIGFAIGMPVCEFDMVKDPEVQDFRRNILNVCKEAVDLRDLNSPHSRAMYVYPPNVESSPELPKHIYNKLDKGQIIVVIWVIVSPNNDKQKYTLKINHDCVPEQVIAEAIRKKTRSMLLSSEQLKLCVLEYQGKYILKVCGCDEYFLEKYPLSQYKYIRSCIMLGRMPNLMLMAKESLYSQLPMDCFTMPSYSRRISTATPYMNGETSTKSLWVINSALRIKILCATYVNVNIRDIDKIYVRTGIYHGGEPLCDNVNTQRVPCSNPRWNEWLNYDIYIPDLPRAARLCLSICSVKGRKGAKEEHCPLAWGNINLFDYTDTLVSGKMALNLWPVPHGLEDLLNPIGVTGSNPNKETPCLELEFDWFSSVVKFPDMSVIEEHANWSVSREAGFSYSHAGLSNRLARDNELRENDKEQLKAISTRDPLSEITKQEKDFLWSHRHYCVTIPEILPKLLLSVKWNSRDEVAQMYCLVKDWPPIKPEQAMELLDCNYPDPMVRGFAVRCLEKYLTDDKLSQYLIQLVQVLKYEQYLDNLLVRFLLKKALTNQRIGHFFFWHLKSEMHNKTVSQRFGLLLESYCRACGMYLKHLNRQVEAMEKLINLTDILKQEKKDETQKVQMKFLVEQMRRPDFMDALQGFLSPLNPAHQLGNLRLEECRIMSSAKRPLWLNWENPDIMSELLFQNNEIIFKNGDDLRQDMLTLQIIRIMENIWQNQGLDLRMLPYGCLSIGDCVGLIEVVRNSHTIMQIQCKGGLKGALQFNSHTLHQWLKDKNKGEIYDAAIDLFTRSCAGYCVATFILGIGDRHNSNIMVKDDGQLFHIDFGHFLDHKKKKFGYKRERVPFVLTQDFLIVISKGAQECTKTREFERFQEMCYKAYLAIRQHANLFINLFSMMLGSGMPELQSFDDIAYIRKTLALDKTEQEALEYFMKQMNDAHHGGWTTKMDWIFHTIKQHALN
T2 sequence (P27986 whole entry partner): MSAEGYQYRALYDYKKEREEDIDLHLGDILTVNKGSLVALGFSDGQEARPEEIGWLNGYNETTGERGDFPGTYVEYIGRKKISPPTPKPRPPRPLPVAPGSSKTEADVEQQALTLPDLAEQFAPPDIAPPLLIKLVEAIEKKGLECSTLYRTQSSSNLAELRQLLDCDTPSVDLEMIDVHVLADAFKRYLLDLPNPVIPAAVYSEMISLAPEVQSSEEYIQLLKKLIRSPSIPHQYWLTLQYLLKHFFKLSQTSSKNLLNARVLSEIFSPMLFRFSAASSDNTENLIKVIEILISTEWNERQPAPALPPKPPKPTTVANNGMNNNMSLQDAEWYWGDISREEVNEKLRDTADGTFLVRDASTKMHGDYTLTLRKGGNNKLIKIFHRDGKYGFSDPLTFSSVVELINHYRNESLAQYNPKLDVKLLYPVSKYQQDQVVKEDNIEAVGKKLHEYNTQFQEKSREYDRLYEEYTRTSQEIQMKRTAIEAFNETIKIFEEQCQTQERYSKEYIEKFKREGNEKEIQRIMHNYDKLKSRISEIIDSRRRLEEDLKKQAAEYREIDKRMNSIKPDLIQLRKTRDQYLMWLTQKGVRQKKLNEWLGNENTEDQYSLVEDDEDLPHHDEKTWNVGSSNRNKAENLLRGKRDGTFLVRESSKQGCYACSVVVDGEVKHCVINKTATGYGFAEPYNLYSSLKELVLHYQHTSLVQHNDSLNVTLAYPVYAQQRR
T1 sequence (P42336 whole entry H1047R): as the sequence (P42336 whole entry E545K) above, with K545E, H1047R counted along it
T1 sequence (P27986 whole entry partner): as the sequence (P27986 whole entry partner) above

| Structure (SMILES) | IC50 [1] [nM] | IC50 [2] [nM] | IC50 [3] [nM] | microsomal CLint at 1 μM [4] [µL/min/mg] |
| --- | --- | --- | --- | --- |
| Cc1cc([C@@H](C)Oc2ccc(Cl)nc2S(N)(=O)=O)c2oc(-c3cnc4nonc4c3)c(C)c(=O)c2c1 [Example 30C, 6-Chloro-3-[(1R)-1-[3,6-dimethyl-2-([1,2,5]oxadiazolo[3,4-b]pyridin-6-yl)-4-oxo-chromen-8-yl]ethoxy]pyridine-2-sulfonamide] | < 100 |  |  |  |
| Cc1cc([C@@H](C)Oc2ccc(Cl)nc2S(N)(=O)=O)c2oc(-c3cnn4c3OCC4)c(C)c(=O)c2c1 [Example 85C, 6-Chloro-3-[(1R)-1-[2-(2,3-dihydropyrazolo[5,1-b]oxazol-7-yl)-3,6-dimethyl-4-oxo-chromen-8-yl]ethoxy]pyridine-2-sulfonamide] | < 100 | < 500 |  |  |
| Cc1cc([C@@H](C)Oc2ccc(Cl)nc2C(N)=O)c2oc(-c3cnn4c3OCCC4)c(C)c(=O)c2c1 [Example 108A, 6-Chloro-3-[(1R)-1-[2-(6,7-dihydro-5H-pyrazolo[5,1-b][1,3]oxazin-3-yl)-3,6-dimethyl-4-oxo-chromen-8-yl]ethoxy]pyridine-2-carboxamide] | < 100 |  |  |  |
| CONC(=O)c1c(O[C@H](C)c2cc(C)cc3c(=O)c(C)c(-c4ccc5nn(C)cc5c4)oc23)ccc(F)c1F [Example 37A, 6-[(1R)-1-[3,6-Dimethyl-2-(2-methylindazol-5-yl)-4-oxo-chromen-8-yl]ethoxy]-2,3-difluoro-N-methoxy-benzamide] | < 100 | < 500 |  |  |
| Cc1cc([C@@H](C)Oc2ccc(Cl)nc2S(N)(=O)=O)c2oc(-c3cnn(C)n3)c(C)c(=O)c2c1 [Example 35A, 6-Chloro-3-[(1R)-1-[3,6-dimethyl-2-(2-methyltriazol-4-yl)-4-oxo-chromen-8-yl]ethoxy]pyridine-2-sulfonamide] | < 100 |  |  |  |
| Cc1cc([C@@H](C)Oc2ccc(Cl)nc2C(N)=O)c2oc(-c3ccc4c(cnn4C)c3)c(C)c(=O)c2c1 [Example 40C, 6-Chloro-3-[(1R)-1-[3,6-dimethyl-2-(1-methylindazol-5-yl)-4-oxo-chromen-8-yl]ethoxy]pyridine-2-carboxamide] | < 100 | < 500 |  |  |
| Cc1cc([C@@H](C)Oc2ccc(Cl)nc2C(N)=O)c2oc(-c3ccc4nc(C)oc4c3)c(C)c(=O)c2c1 [Example 53C, 6-Chloro-3-[(1R)-1-[3,6-dimethyl-2-(2-methyl-1,3-benzoxazol-6-yl)-4-oxo-chromen-8-yl]ethoxy]pyridine-2-carboxamide] | < 100 | < 500 |  |  |
| Cc1cc([C@@H](C)Oc2cccnc2S(N)(=O)=O)c2oc(-c3cnn4c3OCC4)c(C)c(=O)c2c1 [Example 95C, 3-[(1R)-1-[2-(2,3-Dihydropyrazolo[5,1-b]oxazol-7-yl)-3,6-dimethyl-4-oxo-chromen-8-yl]ethoxy]pyridine-2-sulfonamide] | < 100 |  |  |  |
| Cc1cc([C@@H](C)Oc2ccc(Cl)nc2-c2noc(=O)[nH]2)c2oc(-c3ccc4c(c3)OCCN4C)c(C)c(=O)c2c1 [Example 48A, 3-[6-Chloro-3-[(1R)-1-[3,6-dimethyl-2-(4-methyl-2,3-dihydro-1,4-benzoxazin-7-yl)-4-oxo-chromen-8-yl]ethoxy]-2-pyridyl]-4H-1,2,4-oxadiazol-5-one] | < 100 | < 500 |  |  |
| CCS(=O)(=O)c1ccc(-c2oc3c([C@@H](C)Oc4ccc(Cl)nc4S(N)(=O)=O)cc(C)cc3c(=O)c2C)cc1 [Example 33C, 6-Chloro-3-[(1R)-1-[2-(4-ethylsulfonylphenyl)-3,6-dimethyl-4-oxo-chromen-8-yl]ethoxy]pyridine-2-sulfonamide] | < 100 |  |  |  |
| Cc1cc([C@@H](C)Oc2ccccc2C(N)=O)c2oc(-c3ccc4nn(C)cc4c3)c(C)c(=O)c2c1 [Example 9A, 2-[(1R)-1-[3,6-Dimethyl-2-(2-methylindazol-5-yl)-4-oxo-chromen-8-yl]ethoxy]benzamide] | < 100 |  |  |  |
| CONS(=O)(=O)c1nc(Cl)ccc1O[C@H](C)c1cc(C)cc2c(=O)c(C)c(-c3ccccc3)oc12 [Example 32A, 6-Chloro-3-[(1R)-1-(3,6-dimethyl-4-oxo-2-phenyl-chromen-8-yl)ethoxy]-N-methoxy-pyridine-2-sulfonamide] | < 100 |  |  |  |
| Cc1cc([C@@H](C)Oc2ccc(Cl)nc2-c2noc(=O)[nH]2)c2oc(-c3cnc4ccoc4c3)c(C)c(=O)c2c1 [Example 6C, 3-[6-Chloro-3-[(1R)-1-(2-furo[3,2-b]pyridin-6-yl-3,6-yl)ethoxy]-2-pyridyl]-4H-dimethyl-4-oxo-chromen-8-1,2,4-oxadiazol-5-one] | < 100 |  |  |  |
| Cc1cc([C@@H](C)Oc2ccc(Cl)nc2-c2noc(=O)[nH]2)c2oc(-c3cnc4c(c3)OCCN4C)c(C)c(=O)c2c1 [Example 49A, 3-[6-Chloro-3-[(1R)-1-[3,6-dimethyl-2-(4-methyl-2,3-dihydropyrido[3,2-b][1,4]oxazin-7-yl)-4-oxo-chromen-8-yl]ethoxy]-2-pyridyl]-4H-1,2,4-oxadiazol-5-lone] | < 100 |  |  |  |
| Cc1cc([C@@H](C)Oc2ccc(F)c(F)c2S(N)(=O)=O)c2oc(-c3cnn(C)c3)c(C)c(=O)c2c1 [Example 110C, 6-[(1R)-1-[3,6-Dimethyl-2-(1-methylpyrazol-4-yl)-4-oxo-chromen-8-yl]ethoxy]-2,3-difluoro-benzenesulfonamide] |  | < 500 | < 500 | < 50 |
| CONC(=O)c1nc(Cl)ccc1O[C@H](C)c1cc(C)cc2c(=O)c(C)c(-c3ccc4nn(C)cc4c3)oc12 [Example 26A, 6-Chloro-3-[(1R)-1-[3,6-dimethyl-2-(2-methylindazol-5-yl)-4-oxo-chromen-8-yl]ethoxy]-N-methoxy-pyridine-2-carboxamide] |  | < 500 | < 500 | < 50 |
| Cc1cc([C@@H](C)Oc2ccc(Cl)nc2S(N)(=O)=O)c2oc(-c3ccc4nn(CCO)cc4c3)c(C)c(=O)c2c1 [Example 88C, 6-Chloro-3-[(1R)-1-[2-[2-(2-hydroxyethyl)indazol-5-yl]-3,6-dimethyl-4-oxo-chromen-8-yl]ethoxy]pyridine-2-sulfonamide] | < 100 |  |  |  |
